Laboratory results taken from US20250188480A1, “AGENT FOR ENHANCING PRODUCTION OF VIRAL VECTOR AND METHOD FOR PRODUCING VIRAL VECTOR” (priority 2022, published 2025).
“Also recorded” adds a separate entry of the source.

How the values were obtained:
[1] = system: HEK293 cells producing rAAV1; assay: Evaluation of AAV vector-producing ability by treatment with chemical substance (virus titer by qPCR); assay type: cell-based, human; details: for effects of enhancing the amount of production of AAV vectors (v.g.): HEK293 cells, serum-free E-MEM supplemented with the substance at various concentrations, culture for 3 days, vs untreated control
Protocol: The cells of the immortalized cell line derived from the human embryonic kidney (HEK293 cells) purchased from ATCC were cultured in E-MEM supplemented with 10% fetal bovine serum, penicillin, and streptomycin at 37° C. in the presence of 5% CO2.
The recombinant adeno-associated virus 1 (rAAV1) was prepared with the use of 3 types of plasmids: pAAV-ZsGreen1 (TaKaRa Bio), pAAV2/1, and pHelper. A mixture of 3 types of plasmids for preparation of rAAV1 was adjusted to bring the mixing ratio of DNA to Polyethylenimine Max (PEI: Polysciences) (DNA: PEI) to 1:2 in OPTI-MEM, and the reaction was allowed to proceed at room temperature for 15 minutes. After 90% or higher confluent HEK293 cells were transfected with E-MEM supplemented with 10% FBS for 6 hours, culture was performed in serum-free E-MEM to prepare the AAV type 1 vector.
Genome DNA of rAAV1 was extracted to measure the virus titer. Specifically, the culture supernatant was collected and treated with benzonase at 37° C. for 1 hour, and the viral genome DNA was extracted and purified using the DNeasy Blood & Tissue kit (QIAGEN). The virus titer was measured by real-time PCR in triplicate. qPCR was performed using primers targeting Zs-Green 1.
The virus titers achieved with the use of the chemical substances were compared with the virus titer of the control cells treated with serum-free E-MEM not supplemented with chemical substances.

HEK293 cells = details: treated for 5 days; HEK293 cells transduced at 1×10^5 v.g./cell, green fluorescence 3 days thereafter, vs vector without treatment

SMILES | effects of enhancing the amount of production of AAV vectors (v.g.) [1] | infectious ability of the rAAV vector produced by treatment (HEK293 cells) | amount of production of AAV vectors (v.g.) with the elapse of time ([1]; time after initiation of vector production, observed for 4 to 7 days)
N.N.[Cl][Pt][Cl] [Cisplatin] | has effects of enhancing the amount of production of AAV vectors; also recorded: effects of enhancing production of rAAV vectors can be achieved | – | –
[NH2][Pt]1([NH2])[O]CC(=O)[O]1 [Nedaplatin] | has effects of enhancing the amount of production of AAV vectors; also recorded: effects of enhancing production of rAAV vectors can be achieved | – | –
[NH3+][Pt-2]1([NH3+])[O]C(=O)C2(CCC2)C(=O)[O]1 [Carboplatin] | has effects of enhancing the amount of production of AAV vectors; also recorded: effects of enhancing production of rAAV vectors can be achieved | retains the infectious ability equivalent to that of the AAV vector prepared without treatment | increasing with the elapse of time
